According to paper PMC13252604, “First Generation Proteolysis Targeting Chimeras (PROTACs) for the Treatment of Progeria” (Advanced Science, 2026):

Key:
[1] = test system: Lmna^+/+ fibroblasts; test: Cell viability assay (MTT); format: cell-based, mouse; details: up to 50 µM, 24 h
Procedure: (§1) Cpd!" 2 Cpd#$ 9 Cpd!" 2 Cpd#$ 9
(§2) Supporting Figure S3. Cellular cytotoxicity of compounds 2 and 9. Viability of progeroid […]/G609G and wild type Lmna+/+ fibroblasts treated with compounds at 5-50 µM for 24 h. Viability is expressed as the percentage relative to cells treated with vehicle (0.1% DMSO) which are considered 100% viable. Error bars represent the average±SD from three independent experiments carried out in duplicate.
(§3) (also on this page, place not known: !" #$**+,-./-*-01+234 !" #$**+,-./-*-01+234 Cpd2 Cpd2Cpd9 Cpd9) […]
(§4) was saturated at 100 ppm. Relative STD effects were calculated by comparing the intensity of the signals in the STD-NMR spectrum with signal intensities of the reference spectrum (off-resonance). The STD signal with the highest intensity was set to 100%, a nd other STD signals were calculated accordingly. […]
(§5) Cell viability was assessed as previously described.[64] […] Once supernatants were removed, formazan crystals previously formed by viable cells were dissolved in DMSO (100 μL/ well) and absorbance was measured at 570 nm (OD570-630) using an Asys UVM 340 (Biochrom Ltd., Cambridge, UK) microplate reader. Background absorbance from blank wells containing only media with compound or vehicle were subtracted from each test well. […]

[2] = test system: Lmna^G609G/G609G fibroblasts; test: Cell viability assay (MTT); format: cell-based, mouse; details: up to 50 µM, 24 h
Procedure: as §1, §2, §3, §4, §5

CC1(C)Oc2cc3oc(=O)ccc3cc2C[C@@H]1OC(=O)CCCCCNc1cccc2c1C(=O)N(C1CCC(=O)NC1=O)C2=O (some centres unmarked) [compound 2]
cytotoxicity (cell viability) [1]: did not induce significant cytotoxicity
cytotoxicity (cell viability) [2]: did not induce significant cytotoxicity
